Assays:
[1] = Determination of the half-life in vivo by imaging healthy mice with 68Ga-TEFAPI-06; details: PET imaging, SUV at the heart, 68Ga label, tail vein injection; for half-life: mouse, blood, intravenous, 37 MBq
Procedure: A germanium-gallium generator was eluted with 5 mL of 0.6 M high-purity hydrochloric acid to obtain Ga-68 hydrochloric acid solution. 1 mL of the eluted Ga-68 solution was taken, 100 μL of 3M sodium hydroxide and 130 μL of 3M sodium acetate were added to adjust the acidity, the final pH was 4.0, 50 μg of TEFAPI-06 precursor was added, and the reaction mixture was heated to 90° C., and maintained at the temperature for 10 minutes. The reaction solution was passed through a C18 column to remove free ions, and then the C18 column was eluted with ethanol solution. Labeled ^68Ga-TEFAPI-06 was obtained.
37 MBq labeled product was taken, 200 μL of normal saline was added for dilution, the drug was drawn with an insulin syringe for later use, and ethanol content in the drug was not higher than 5%. Healthy mice were anesthetized in advance and then placed on a PET/CT collection bed and an indwelling needle was placed at the tail vein. The syringe was attached to the indwelling needle, and collection of PET data was started at the zero moment of needle pushing. Collection time points were 0-60 min, 2 h, 3 h, 4 h, and 5 h respectively. After the collection, the data was reconstructed with professional software, and reconstruction conditions were to reconstruct the data at intervals of every minute for the first 5 minutes, reconstruct the data every 5 minutes in 5-60 minutes, and reconstruct the data at each of the other time points. The collected data was processed by PET reconstruction software to obtain continuous image. In PET processing software, a fixed region was depicted at the heart of the mouse, and SUV-Mean and SUV-Max values at the heart were obtained. The obtained SUV was simulated via data processing software.

[2] = test system: PDX mouse model of pancreatic cancer; experiment: Long-duration PET imaging with 86Y-TEFAPI-06 in a PDX mouse model of pancreatic cancer; format: in vivo; details: after 18 hours
Procedure: Y-86 is a positron nuclide with half-life of 14.6 hours and can be radiolabeled with DOTA, and therefore, is very suitable for long-duration detection of the distribution of TEFAPI molecule in vivo. 1 mL of Y-86 hydrochloric acid was taken, 100 μL of 3M sodium hydroxide and 130 μL of 3M sodium acetate were added to adjust acidity, the final pH was 4.0, 50 μg of TEFAPI-06 precursor was added, and the reaction mixture was heated to 90° C., and maintained at the temperature for 10 minutes. The reaction solution was passed through a C18 column to remove free ions, and then the C18 column was eluted with ethanol solution. Labeled ^86Y-TEFAPI-06 was obtained. The labeled ^86Y-TEFAPI-06 was diluted with normal saline, and 7.4 Mbq of the resulting solution was injected to each mouse. PET scanning imaging was performed at 0.5, 2, 6, 12, 18, 24 and 36 h after injection, and PET image processing software was used for reconstruction. The obtained PET image is shown in FIG. 3, SUV values were marked at the tumor and heart of the mouse, and a curve was obtained based on the change of the SUV value with time.

FAP = experiment: Competitive inhibition experiment of TEFAPI-06 in mice with PDX pancreatic cancer (68Ga-FAPI-04 PET); format: in vivo
Procedure: In order to verify the specificity of TEFAPI-06 against a FAP target, the inventors performed PET imaging on the same batch of mice before and after inhibition in the competitive inhibition experiment. According to the Y-86 long-duration PET imaging, the uptake of the tumor reached a peak between 18 hours and 24 hours after drug injection. Therefore, ^68Ga-FAPI-04 imaging was first performed on tumor-bearing mice to determine that the mice had tumor uptake. After 48 hours of standing to ensure metabolism of ^68Ga-FAPI-04, two mice were injected with 300 μg of TEFAPI-06 molecules, and 18 hours after injection, PET molecular imaging of ^68Ga-FAPI-04 was performed on the mice injected with TEFAPI-06 molecules.

PDX pancreatic cancer = experiment: Treatment of PDX pancreatic cancer in mice with 177Lu-TEFAPI-06; format: in vivo; details: Lu-177 label, treatment dose 3.7 MBq
Text: There were 5 mice in each group. The treatment dose was 3.7 MBq. […] In order to evaluate the therapeutic effect, the inventors performed physical examination via FAPI-04 imaging on mice before and after the treatment, and the results are shown in FIG. 5.

SMILES	blood half-life [1]	half-life [1]	kidney metabolism [2]	tumor/normal tissue uptake ratio [2]	tumor uptake of 68Ga-FAPI-04 after injection of TEFAPI-06 (inhibition) (FAP; 300 μg TEFAPI-06, 18 hours before 68Ga-FAPI-04 PET, read 30 minutes after injection)	target site (specificity) (FAP; conclusion of competitive inhibition experiment)	tumor growth (tumor growth curve) (PDX pancreatic cancer)
N#C[C@@H]1CC(F)(F)CN1C(=O)CNC(=O)c1ccnc2ccc(OCCCN3CCN(C(=O)[C@H](CCCCNC(=O)CN4CCN(CC(=O)O)CCN(CC(=O)O)CCN(CC(=O)O)CC4)NC(=O)CCCC(=O)NC(CCCCNC(=O)CCCc4ccc(I)cc4)C(=O)O)CC3)cc12 (some centres unmarked) [TEFAPI-06]	6.63 h	6.67 h	basically cleared	greater than 10	basically no additional uptake at the tumor	FAP	significantly inhibited
N#C[C@@H]1CC(F)(F)CN1C(=O)CNC(=O)c1ccnc2ccc(OCCCN3CCN(C(=O)CN4CCN(CC(=O)O)CCN(CC(=O)O)CCN(CC(=O)O)CC4)CC3)cc12 [FAPI-04, reference compound]	–	0.433 h	–	–	–	–	–

— US20240042066A1, “FIBROBLAST ACTIVATION PROTEIN INHIBITOR” (BOOMRAY PHARMACEUTICALS CO., LTD., priority 2020, published 2024)
